The record followed here is US9981942B2, “Piperidine derivatives having multimodal activity against pain” (LABORATORIOS DEL DR. ESTEVE S.A., priority 2013, dated 2018).

A value given as a limit tells only on which side of the number the result lay.

For the test, the target named is σ1 receptor and the μ-opiod receptor. The test is described as follows: μ and σ1 dual binding: combined class from the Ki of both radioligand assays. Set-up: species or system human; key to μ and σ1 dual binding: +: Both Ki-μ and Ki-σ1>=500 nM; ++: One Ki<500 nM while the other Ki is >=500 nM; +++: Both Ki-μ and Ki-σ1<500 nM; ++++: Both Ki-μ and Ki-σ1<100 nM. The following applies: transfected HEK-293 membranes (σ1), transfected CHO-K1 cell membranes (μ); for μ and σ1 dual binding: combined class for Ki-μ and Ki-σ1. The gist of the method:
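Classes combine both Ki values, split at 500 nM and 100 nM. Human μ-opioid binding used 1 nM [3H]-DAMGO on CHO-K1 membranes (27 °C, 60 min, pH 7.4, naloxone 10 μM for NSB); human σ1 used 5 nM [3H](+)-pentazocine on HEK-293 membranes (37 °C, 120 min, pH 8, haloperidol 10 μM for NSB).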

For the compound `CS(=O)(=O)Nc1cccc(C2CCN(Cc3cnn(-c4ccccc4)c3)CC2)c1` [Example 163, N-(3-(1-((1-phenyl-1H-pyrazol-4-yl)methyl)piperidin-4-yl)phenyl)methanesulfonamide], the Ki range for both μ and σ1 (dual-binding class) is less than 100 nM.
Same read-out and setting: with `Oc1cccc(C2CCN(Cc3cnn(-c4ccccc4)c3)CC2)c1` [Example 164, 3-(1-((1-phenyl-1H-pyrazol-4-yl)methyl)piperidin-4-yl)phenol] the figure was less than 100 nM; with `CS(=O)(=O)Nc1cccc([C@@H]2CCN(Cc3cnn(-c4ccccc4)c3)C[C@@H]2O)c1` [Example 165, N-(3-((3R,4S)-3-hydroxy-1-((1-phenyl-1H-pyrazol-4-yl)methyl)piperidin-4-yl)phenyl)methanesulfonamide], less than 500 nM.
As for `CS(=O)(=O)Nc1cccc(C2CCN(Cc3cnn([C@@H]4c5ccccc5C[C@H]4O)c3)CC2)c1` [Example 166, N-(3-(1-((1-((1R,2R)-2-hydroxy-2,3-dihydro-1H-inden-1-yl)-1H-pyrazol-4-yl)methyl)piperidin-4-yl)phenyl)methanesulfonamide], the “μ and σ1 dual binding” value was “++”.
As to `CC(C)S(=O)(=O)Nc1cccc(C2CCN(Cc3cnn(Cc4ccccn4)c3)CC2)c1` [Example 167, N-(3-(1-((1-(pyridin-2-ylmethyl)-1H-pyrazol-4-yl)methyl)piperidin-4-yl)phenyl)propane-2-sulfonamide], the Ki range for both μ and σ1 (dual-binding class) is less than 500 nM.
Turning to `CC(C)S(=O)(=O)Nc1cccc([C@@H]2CCN(Cc3cnn(-c4ccccn4)c3)C[C@@H]2O)c1` [Example 169, N-(3-((3R,4S)-3-hydroxy-1-((1-(pyridin-2-yl)-1H-pyrazol-4-yl)methyl)piperidin-4-yl)phenyl)propane-2-sulfonamide], the “μ and σ1 dual binding” value is “++”.
`CC(C)S(=O)(=O)Nc1cccc(C2CCN(Cc3cnn(Cc4cccc(F)n4)c3)CC2)c1` [Example 170, N-(3-(1-((1-((6-fluoropyridin-2-yl)methyl)-1H-pyrazol-4-yl)methyl)piperidin-4-yl)phenyl)propane-2-sulfonamide]: the Ki range for both μ and σ1 (dual-binding class) is less than 100 nM.
In the case of `Oc1cccc(C2CCN(Cc3cnn(Cc4ccccn4)c3)CC2)c1` [Example 171, 3-(1-((1-(pyridin-2-ylmethyl)-1H-pyrazol-4-yl)methyl)piperidin-4-yl)phenol], the Ki range for both μ and σ1 (dual-binding class) was less than 500 nM.
With `Oc1cccc(C2CCN(Cc3cnn(Cc4ncccc4F)c3)CC2)c1` [Example 172, 3-(1-((1-((3-fluoropyridin-2-yl)methyl)-1H-pyrazol-4-yl)methyl)piperidin-4-yl)phenol], the Ki range for both μ and σ1 (dual-binding class) is less than 500 nM.
On the same count and under the same terms, the figure for `Oc1cccc(C2CCN(Cc3cnn(Cc4ccc(F)cn4)c3)CC2)c1` [Example 173, 3-(1-((1-((5-fluoropyridin-2-yl)methyl)-1H-pyrazol-4-yl)methyl)piperidin-4-yl)phenol] is less than 500 nM; for `CS(=O)(=O)Nc1cccc(C2CCN(Cc3cc(-c4ccccc4)no3)CC2)c1` [Example 174, N-(3-(1-((3-phenylisoxazol-5-yl)methyl)piperidin-4-yl)phenyl)methanesulfonamide] it is less than 100 nM.
`CS(=O)(=O)Nc1cccc(C2CCN(Cc3nnc(-c4ccccc4)o3)CC2)c1` [Example 175, N-(3-(1-((5-phenyl-1,3,4-oxadiazol-2-yl)methyl)piperidin-4-yl)phenyl)methanesulfonamide]: the “μ and σ1 dual binding” value is “++”.
With `Oc1cccc(C2CCN(Cc3cc(-c4ccccc4)no3)CC2)c1` [Example 176, 3-(1-((3-phenylisoxazol-5-yl)methyl)piperidin-4-yl)phenol], the Ki range for both μ and σ1 (dual-binding class) was less than 100 nM.
The same measure, in the same setting: with `Oc1cccc(C2CCN(Cc3cc(Cc4ccccc4)no3)CC2)c1` [Example 177, 3-(1-((3-benzylisoxazol-5-yl)methyl)piperidin-4-yl)phenol] the figure was less than 100 nM.
In the case of `CS(=O)(=O)Nc1cccc(C2CCN(Cc3cc(Cc4ccccc4)no3)CC2)c1` [Example 178, N-(3-(1-((3-benzylisoxazol-5-yl)methyl)piperidin-4-yl)phenyl)methanesulfonamide], the Ki range for both μ and σ1 (dual-binding class) is less than 500 nM.
The same measure, in the same setting: the figure for `CS(=O)(=O)Nc1ccc(F)c(C2CCN(Cc3cc(-c4ccccc4)no3)CC2)c1` [Example 179, N-(4-fluoro-3-(1-((3-phenylisoxazol-5-yl)methyl)piperidin-4-yl)phenyl)methanesulfonamide] is less than 500 nM.
`CS(=O)(=O)Nc1cc(C2CCN(Cc3cc(-c4ccccc4)no3)CC2)ccc1F` [Example 180, N-(2-fluoro-5-(1-((3-phenylisoxazol-5-yl)methyl)piperidin-4-yl)phenyl)methanesulfonamide]: the Ki range for both μ and σ1 (dual-binding class) is less than 500 nM.
In the case of `CC(C)S(=O)(=O)Nc1cccc(C2CCN(Cc3cc(-c4ccccn4)no3)CC2)c1` [Example 181, N-(3-(1-((3-(pyridin-2-yl)isoxazol-5-yl)methyl)piperidin-4-yl)phenyl)propane-2-sulfonamide], the “μ and σ1 dual binding” value is reported as “++”.
On the same count and under the same terms, the entry for `CS(=O)(=O)Nc1cccc(C2CCN(Cc3ncn(-c4ccccc4)n3)CC2)c1` [Example 182, N-(3-(1-((1-phenyl-1H-1,2,4-triazol-3-yl)methyl)piperidin-4-yl)phenyl)methanesulfonamide] is “++”.
With `CS(=O)(=O)Nc1cccc(C2CCN(Cc3cn(Cc4ccccc4)cn3)CC2)c1` [Example 183, N-(3-(1-((1-benzyl-1H-imidazol-4-yl)methyl)piperidin-4-yl)phenyl)methanesulfonamide], the Ki range for both μ and σ1 (dual-binding class) was less than 500 nM.
Same read-out and setting: the figure for `Oc1cccc(C2CCN(Cc3cn(Cc4ccccc4)cn3)CC2)c1` [Example 184, 3-(1-((1-benzyl-1H-imidazol-4-yl)methyl)piperidin-4-yl)phenol] is less than 100 nM.
On to `CS(=O)(=O)Nc1cccc(C2CCN(Cc3cncn3Cc3ccccc3)CC2)c1` [Example 185, N-(3-(1-((1-benzyl-1H-imidazol-5-yl)methyl)piperidin-4-yl)phenyl)methanesulfonamide], for which the “μ and σ1 dual binding” value is given as “++”.
Consider `CC(C)S(=O)(=O)Nc1cccc(C2CCN(Cc3cn(Cc4ccccn4)cn3)CC2)c1` [Example 186, N-(3-(1-((1-(pyridin-2-ylmethyl)-1H-imidazol-4-yl)methyl)piperidin-4-yl)phenyl)propane-2-sulfonamide], for which the “μ and σ1 dual binding” value is given as “++”.
On the same count and under the same terms, with `CC(C)S(=O)(=O)Nc1cccc(C2CCN(Cc3cncn3Cc3ccccn3)CC2)c1` [Example 187, N-(3-(1-((1-(pyridin-2-ylmethyl)-1H-imidazol-5-yl)methyl)piperidin-4-yl)phenyl)propane-2-sulfonamide] the entry was “++”.
The same measure, in the same setting: the entry for `Oc1cccc(C2CCN(Cc3cn(Cc4ccccn4)cn3)CC2)c1` [Example 188, 3-(1-((1-(pyridin-2-ylmethyl)-1H-imidazol-4-yl)methyl)piperidin-4-yl)phenol] is “++”.
On the same count and under the same terms, with `Oc1cccc(C2CCN(Cc3cn(Cc4ncccc4F)cn3)CC2)c1` [Example 189, 3-(1-((1-((3-fluoropyridin-2-yl)methyl)-1H-imidazol-4-yl)methyl)piperidin-4-yl)phenol] the entry was “++”.
